These results are taken from patent US8716292B2, “Riminophenazines with 2-(heteroaryl)amino substituents and their anti-microbial activity” (priority 2010, dated 2014).

This assay deals with Mycobacterium tuberculosis H37Rv strains. The assay is described as follows: In vitro assay for antimicrobial susceptibility (microplate Alamar blue MIC). Type of assay: cell-based. To be noted: Mycobacterium tuberculosis, H37RV, read-out: MIC (μg/mL) against H37Rv. In general terms: Alamar Blue is a resazurin reagent that responds to reducing activity.
Where [1] appears, read: in vitro, Mycobacterium tuberculosis H37Rv strains.
Where [2] appears, read: 7H9, Alamar blue, inhibition ≧90%.

In brackets after ≈: the same amount, converted by molar mass. Where two headings read alike, the source gives them in different places.

With `Cc1cncc(Nc2cc3nc4ccccc4n(-c4ccc(C(F)(F)F)cc4)c-3c/c2=N\C2CCC(O)CC2)c1` (centres unmarked) [TBI-727, 5-(4-Trifluoromethylphenyl)-3-(4-hydroxycyclohexyl)imino-2-(5-methyl-3-pyridyl)amino-3,5-dihydrophenazine], under setting [1], the MIC was 0.405 µg/mL (≈ 0.745 µM). For `COc1ncccc1Nc1cc2nc3ccccc3n(-c3ccc(C)cc3)c-2c/c1=N\C(C)C` [TBI-308, 5-(4-Methylphenyl)-3-(1-methylethyl)imino-2-(2-methoxy-3-pyridyl)amino-3,5-dihydrophenazine], the MIC under setting [1] came out at 0.125 µg/mL (≈ 0.278 µM). Take `COc1ncccc1Nc1cc2nc3ccccc3n(-c3ccc(C(F)(F)F)cc3)c-2c/c1=N\C(C)C` [TBI-699, 5-(4-Trifluoromethylphenyl)-3-(1-methylethyl)imino-2-(2-methoxy-3-pyridyl)amino-3,5-dihydrophenazine]: under setting [1], the MIC worked out at 0.029 µg/mL (≈ 0.0576 µM). Same read-out and setting: the same measure for `Clc1ccc(-n2c3c/c(=N\C4CC4)c(Nc4cccnc4)cc-3nc3ccccc32)c(Cl)c1` [TBI-367, 5-(2,4-Dichlorophenyl)-3-cyclopropylimino-2-(3-pyridyl)amino-3,5-dihydrophenazine]: 0.023 µg/mL (≈ 0.0487 µM). Take `COc1ccc2nc3cc(Nc4cccnc4OC)/c(=N/C4CCC(OC)CC4)cc-3n(-c3ccc(Cl)cc3)c2c1` (centres unmarked) [TBI-941, 7-Methoxy-5-(4-chlorophenyl)-3-(4-methoxycyclohexyl)imino-2-(2-methoxy-3-pyridyl)amino-3,5-dihydrophenazine]: the MIC under setting [1] worked out at 0.06 µg/mL (≈ 0.105 µM). Consider `Fc1ccc(-n2c3c/c(=N\CCN4CCOCC4)c(Nc4cccnc4)cc-3nc3ccccc32)cc1` [TBI-680, 5-(4-Fluorophenyl)-3-(2-morpholinoethyl)imino-2-(3-pyridyl)amino-3,5-dihydrophenazine], for which the MIC under setting [1] came out at 0.5 µg/mL (≈ 1.01 µM). On to `N#Cc1cccnc1Nc1cc2nc3ccccc3n(-c3ccc(F)cc3)c-2c/c1=N\C1CCOCC1` [TBI-1086, 5-(4-Fluorophenyl)-3-(4-tetrahydropyranyl)imino-2-(3-cyano-2-pyridyl)amino-3,5-dihydrophenazine], for which the MIC under setting [2] was 0.04 µg/mL (≈ 0.0815 µM). As to `COC1CCC(/N=c2\cc3n(-c4ccc(F)cc4)c4ccccc4nc-3cc2Nc2cccnc2C)CC1` (centres unmarked) [TBI-1013, 5-(4-Fluorophenyl)-3-(4-methoxycyclohexyl)imino-2-(2-methyl-3-pyridyl)amino-3,5-dihydrophenazine], under setting [1], the MIC was 0.019 µg/mL (≈ 0.0374 µM). With `Cc1ccc(-n2c3c/c(=N\C4CCC4)c(Nc4cccnc4C)cc-3nc3ccccc32)cc1` [TBI-347, 5-(4-Methylphenyl)-3-cyclobutylimino-2-(2-methyl-3-pyridyl)amino-3,5-dihydrophenazine], the MIC under setting [1] worked out at 0.042 µg/mL (≈ 0.0943 µM). On the same count and under the same terms, the same measure for `COc1ncccc1Nc1cc2nc3ccccc3n(-c3ccc(Cl)cc3)c-2c/c1=N\C(C)C` [TBI-438, 5-(4-Chlorophenyl)-3-(1-methylethyl)imino-2-(2-methoxy-3-pyridyl)amino-3,5-dihydrophenazine]: 0.03 µg/mL (≈ 0.0638 µM); for `Cc1ccc(Nc2cc3nc4cc(F)ccc4n(-c4ccc(Cl)cc4)c-3c/c2=N\C(C)C)cn1` [TBI-943, 8-Fluoro-5-(4-chlorophenyl)-3-(1-methylethyl)imino-2-(6-methyl-3-pyridyl)amino-3,5-dihydrophenazine]: 0.06 µg/mL (≈ 0.127 µM). Still for that read-out and setting: the same measure for `COc1ncccc1Nc1cc2nc3ccccc3n(-c3ccc(OC(F)(F)F)cc3)c-2c/c1=N\C1CCN(C)CC1` [TBI-168, 5-(4-Trifluoromethoxyphenyl)-3-(N-methyl-4-piperidyl)imino-2-(2-methoxy-3-pyridyl)amino-3,5-dihydrophenazine]: 0.109 µg/mL (≈ 0.19 µM). With `COc1ncccc1Nc1cc2nc3ccccc3n(-c3ccccc3)c-2c/c1=N\C1CCCCC1` [TBI-079, 5-Phenyl-3-cyclohexylimino-2-(2-methoxy-3-pyridyl)amino-3,5-dihydrophenazine], under setting [1], the MIC turned out to be 0.068 µg/mL (≈ 0.143 µM). On to `Cc1ccc(-n2c3c/c(=N\C(C)C)c(Nc4cccnc4C)cc-3nc3ccccc32)cc1` [TBI-321, 5-(4-Methylphenyl)-3-(1-methylethyl)imino-2-(2-methyl-3-pyridyl)amino-3,5-dihydrophenazine], for which the MIC under setting [1] was 0.419 µg/mL (≈ 0.966 µM). For the molecule `COc1ccc(Nc2cc3nc4ccccc4n(-c4ccc(C)cc4)c-3c/c2=N\C2CCCCC2)cn1` [TBI-357, 5-(4-Methylphenyl)-3-cyclohexylimino-2-(6-methoxy-3-pyridyl)amino-3,5-dihydrophenazine], the MIC under setting [1] is 0.228 µg/mL (≈ 0.466 µM). In the case of `COc1ncccc1Nc1cc2nc3ccccc3n(-c3ccc(Cl)cc3)c-2c/c1=N\C1CCN(CC(C)C)CC1` [TBI-442, 5-(4-Chlorophenyl)-3-(N-isobutyl-4-piperidyl)imino-2-(2-methoxy-3-pyridyl)amino-3,5-dihydrophenazine], the MIC under setting [1] is 0.016 µg/mL (≈ 0.0282 µM). For `Cc1ccc(Nc2cc3nc4ccccc4n(-c4ccc(C(F)(F)F)cc4)c-3c/c2=N\C2CCC2)cn1` [TBI-738, 5-(4-Trifluoromethylphenyl)-3-cyclobutylimino-2-(6-methyl-3-pyridyl)amino-3,5-dihydrophenazine], the MIC under setting [1] was determined as 0.029 µg/mL (≈ 0.0581 µM).

Regarding `COC1CCC(/N=c2\cc3n(-c4ccc(C(F)(F)F)cc4)c4ccccc4nc-3cc2Nc2ccc(NC(C)=O)nc2)CC1` (centres unmarked) [TBI-715, 5-(4-Trifluoromethylphenyl)-3-(4-methoxycyclohexyl)imino-2-(6-acetamino-3-pyridyl)amino-3,5-dihydrophenazine], the MIC under setting [1] was found to be 0.06 µg/mL (≈ 0.0999 µM). Same read-out and setting: the same measure for `FC(F)(F)Oc1cccc(-n2c3c/c(=N\C4CCC4)c(Nc4cccnc4)cc-3nc3ccccc32)c1` [TBI-1027, 5-(3-Trifluoromethoxyphenyl)-3-cyclobutylimino-2-(3-pyridyl)amino-3,5-dihydrophenazine]: 0.383 µg/mL (≈ 0.764 µM). As to `COC1CCC(/N=c2\cc3n(-c4ccc(F)cc4)c4ccccc4nc-3cc2Nc2ncccc2[N+](=O)[O-])CC1` (centres unmarked) [TBI-1083, 5-(4-Fluorophenyl)-3-(4-methoxycyclohexyl)imino-2-(3-nitro-2-pyridyl)amino-3,5-dihydrophenazine], under setting [2], the MIC is 5.81 µg/mL (≈ 10.8 µM).

On to `Cc1ccc(-n2c3c/c(=N\C4CCC(O)CC4)c(Nc4cccnc4C)cc-3nc3ccccc32)cc1` (centres unmarked) [TBI-335, 5-(4-Methylphenyl)-3-(4-hydroxycyclohexyl)imino-2-(2-methyl-3-pyridyl)amino-3,5-dihydrophenazine], for which the MIC under setting [1] was 0.336 µg/mL (≈ 0.686 µM). In the case of `COc1ncccc1Nc1cc2nc3ccccc3n(-c3ccc(C)cc3)c-2c/c1=N\C1CCC1` [TBI-344, 5-(4-Methylphenyl)-3-cyclobutylimino-2-(2-methoxy-3-pyridyl)amino-3,5-dihydrophenazine], the MIC under setting [1] is 0.04 µg/mL (≈ 0.0867 µM). Still for that read-out and setting: next, `Cc1ccc(Nc2cc3nc4ccc(F)cc4n(-c4ccc(Cl)c(Cl)c4)c-3c/c2=N\C2CCOCC2)cn1` [TBI-949, 7-Fluoro-5-(3,4-dichlorophenyl)-3-(4-tetrahydropyranyl)imino-2-(6-methyl-3-pyridyl)amino-3,5-dihydrophenazine]: 0.816 µg/mL (≈ 1.49 µM); `COCC(COC)/N=c1\cc2n(-c3ccc(C)cc3)c3ccccc3nc-2cc1Nc1ccc(C)nc1` [TBI-374, 5-(4-Methylphenyl)-3-(1,3-dimethoxyisopropyl)imino-2-(6-methyl-3-pyridyl)amino-3,5-dihydrophenazine]: 0.125 µg/mL (≈ 0.253 µM). On the same count and under the same terms, next, `Clc1ccc(-n2c3c/c(=N\C4CC4)c(Nc4cccnc4)cc-3nc3ccccc32)cc1Cl` [TBI-343, 5-(3,4-Dichlorophenyl)-3-cyclopropylimino-2-(3-pyridyl)amino-3,5-dihydrophenazine]: 0.014 µg/mL (≈ 0.0296 µM).

As for `Cc1ccc(-n2c3c/c(=N\C4CCOCC4)c(Nc4cccnc4)cc-3nc3ccccc32)cc1` [TBI-303, 5-(4-Methylphenyl)-3-(4-tetrahydropyranyl)imino-2-(3-pyridinyl)amino-3,5-dihydrophenazine], the MIC under setting [1] stood at 0.03 µg/mL (≈ 0.065 µM). On the same count and under the same terms, the same measure for `COc1ncccc1Nc1cc2nc3ccccc3n(-c3cccc(Cl)c3)c-2c/c1=N\C1CCOCC1` [TBI-822, 5-(3-Chlorophenyl)-3-(4-tetrahydropyranyl)imino-2-(2-methoxy-3-pyridyl)amino-3,5-dihydrophenazine]: 0.125 µg/mL (≈ 0.244 µM). Still for that read-out and setting: the same measure for `COC1CCC(/N=c2\cc3n(-c4ccc(C)cc4)c4ccccc4nc-3cc2Nc2ccc(C)nc2)CC1` (centres unmarked) [TBI-316, 5-(4-Methylphenyl)-3-(4-methoxycyclohexyl)imino-2-(6-methyl-3-pyridyl)amino-3,5-dihydrophenazine]: 0.028 µg/mL (≈ 0.0556 µM); for `CO[C@H]1CC[C@H](/N=c2\cc3n(-c4ccc(F)cc4)c4ccccc4nc-3cc2Nc2ccc(NC(C)=O)nc2)CC1` [TBI-915, 5-(4-Fluorophenyl)-3-(1′,4′-trans-4-methoxycyclohexyl)imino-2-(6-acetamino-3-pyridyl)amino-3,5-dihydrophenazine]: 0.211 µg/mL (≈ 0.383 µM). Turning to `Cc1cncc(Nc2cc3nc4ccccc4n(-c4ccccc4)c-3c/c2=N\C2CC2)c1` [TBI-096, 5-Phenyl-3-cyclopropylimino-2-(5-methyl-3-pyridyl)amino-3,5-dihydrophenazine], the MIC under setting [1] was 0.069 µg/mL (≈ 0.165 µM).

Regarding `Cc1ccc(Nc2cc3nc4ccccc4n(-c4ccc(Cl)c(Cl)c4)c-3c/c2=N\C2CC2)cn1` [TBI-944, 5-(3,4-Dichlorophenyl)-3-cyclopropylimino-2-(6-methyl-3-pyridyl)amino-3,5-dihydrophenazine], the MIC under setting [1] is 0.06 µg/mL (≈ 0.123 µM).

For the molecule `COc1ncccc1Nc1cc2nc3ccccc3n(-c3cccc(Cl)c3)c-2c/c1=N\C1CCC1` [TBI-824, 5-(3-Chlorophenyl)-3-cyclobutylimino-2-(2-methoxy-3-pyridyl)amino-3,5-dihydrophenazine], under setting [1], the MIC was 0.06 µg/mL (≈ 0.124 µM). The same measure, in the same setting: next, `CC(=O)Nc1ccc(Nc2cc3nc4ccccc4n(-c4ccc(F)cc4)c-3c/c2=N\C2CCOCC2)cn1` [TBI-911, 5-(4-Fluorophenyl)-3-(4-tetrahydropyranyl)imino-2-(6-acetamino-3-pyridyl)amino-3,5-dihydrophenazine]: 0.36 µg/mL (≈ 0.689 µM); `Cc1ccc(-n2c3c/c(=N\C4CCC4)c(Nc4cncc(C)c4)cc-3nc3ccccc32)cc1` [TBI-348, 5-(4-Methylphenyl)-3-cyclobutylimino-2-(5-methyl-3-pyridyl)amino-3,5-dihydrophenazine]: 0.118 µg/mL (≈ 0.265 µM). The same measure, in the same setting: next, `Cc1cncc(Nc2cc3nc4ccccc4n(-c4ccc(C(F)(F)F)cc4)c-3c/c2=N\C2CCOCC2)c1` [TBI-723, 5-(4-Trifluoromethylphenyl)-3-(4-tetrahydropyranyl)imino-2-(5-methyl-3-pyridyl)amino-3,5-dihydrophenazine]: 0.041 µg/mL (≈ 0.0774 µM).
